# Assay results published in PMC11277489, “Novel Piperazine Derivatives of Vindoline as Anticancer Agents” (International Journal of Molecular Sciences, 2024).
# Assays:
# SNB-19 = assay: NCI60 one-dose screen (10 μM), CNS Cancer; assay type: cell-based; settings: Homo sapiens, SNB-19, read-out: Growth percent rate
# SK-MEL-2 = assay: NCI60 one-dose screen (10 μM), Melanoma; assay type: cell-based; settings: Homo sapiens, SK-MEL-2, read-out: Growth percent rate
# SN12C = assay: NCI60 one-dose screen (10 μM), Renal Cancer; assay type: cell-based; settings: Homo sapiens, read-out: Growth percent rate
# HCC-2998 = assay: NCI60 one-dose screen (10 μM), Colon Cancer; assay type: cell-based; settings: Homo sapiens, HCC 2998, read-out: Growth percent rate
# 786–0 = assay: NCI60 one-dose screen (10 μM), Renal Cancer; assay type: cell-based; settings: Homo sapiens, 786-0, read-out: Growth percent rate
# HOP-62 = assay: NCI60 one-dose screen (10 μM), Non-small Cell Lung Cancer; assay type: cell-based; settings: Homo sapiens, HOP-62, read-out: Growth percent rate
# NCI-H23 = assay: as above; assay type: cell-based; settings: Homo sapiens, NCI-H23, read-out: Growth percent rate
# U251 = assay: NCI60 one-dose screen (10 μM), CNS Cancer; assay type: cell-based; settings: Homo sapiens, U-251, read-out: Growth percent rate
# HS 578T = assay: NCI60 one-dose screen (10 μM), Breast Cancer; assay type: cell-based; settings: Homo sapiens, Hs-578T, read-out: Growth percent rate
# RPMI-8226 = assay: NCI60 one-dose screen (10 μM), Leukemia; assay type: cell-based; settings: Homo sapiens, RPMI-8226, read-out: Growth percent rate
# UACC-257 = assay: NCI60 one-dose screen (10 μM), Melanoma; assay type: cell-based; settings: Homo sapiens, UACC-257, read-out: Growth percent rate
# COLO 205 = assay: NCI60 one-dose screen (10 μM), Colon Cancer; assay type: cell-based, human; settings: Homo sapiens, COLO 205, read-out: Growth percent rate
# SF-295 = assay: NCI60 one-dose screen (10 μM), CNS Cancer; assay type: cell-based; settings: Homo sapiens, SF-295, read-out: Growth percent rate
# OVCAR-8 = assay: NCI60 one-dose screen (10 μM), Ovarian Cancer; assay type: cell-based; settings: Homo sapiens, OVCAR-8, read-out: Growth percent rate
# SF-539 = assay: NCI60 one-dose screen (10 μM), CNS Cancer; assay type: cell-based, human; settings: Homo sapiens, SF-539, read-out: Growth percent rate
# HCT-15 = assay: NCI60 one-dose screen (10 μM), Colon Cancer; assay type: cell-based; settings: Homo sapiens, HCT-15, read-out: Growth percent rate
# ACHN = assay: NCI60 one-dose screen (10 μM), Renal Cancer; assay type: cell-based; settings: Homo sapiens, read-out: Growth percent rate
# MDA-MB-435 = assay: NCI60 one-dose screen (10 μM), Melanoma; assay type: cell-based; settings: Homo sapiens, MDA-MB-435, read-out: Growth percent rate
# SW-620 = assay: NCI60 one-dose screen (10 μM), Colon Cancer; assay type: cell-based; settings: Homo sapiens, SW-620, read-out: Growth percent rate
# HCT-116 = assay: NCI60 one-dose screen (10 μM), Colon Cancer; assay type: cell-based; settings: Homo sapiens, HCT-116, read-out: Growth percent rate
# CAKI-1 = assay: NCI60 one-dose screen (10 μM), Renal Cancer; assay type: cell-based; settings: Homo sapiens, CAKI-1, read-out: Growth percent rate
# M14 = assay: NCI60 one-dose screen (10 μM), Melanoma; assay type: cell-based; settings: Homo sapiens, M14, read-out: Growth percent rate
# TK-10 = assay: NCI60 one-dose screen (10 μM), Renal Cancer; assay type: cell-based; settings: Homo sapiens, TK-10, read-out: Growth percent rate
# NCI-H522 = assay: NCI60 one-dose screen (10 μM), Non-small Cell Lung Cancer; assay type: cell-based; settings: Homo sapiens, NCI-H522, read-out: Growth percent rate
# KM12 = assay: NCI60 one-dose screen (10 μM), Colon Cancer; assay type: cell-based, human; settings: Homo sapiens, KM12, read-out: Growth percent rate
# MOLT-4 = assay: NCI60 one-dose screen (10 μM), Leukemia; assay type: cell-based, human; settings: Homo sapiens, MOLT-4, read-out: Growth percent rate
# NCI-H322M = assay: NCI60 one-dose screen (10 μM), Non-small Cell Lung Cancer; assay type: cell-based; settings: Homo sapiens, read-out: Growth percent rate
# SK-MEL-5 = assay: NCI60 one-dose screen (10 μM), Melanoma; assay type: cell-based, human; settings: Homo sapiens, SK-MEL-5, read-out: Growth percent rate
# SK-MEL-28 = assay: NCI60 one-dose screen (10 μM), Melanoma; assay type: cell-based; settings: Homo sapiens, SK-MEL-28, read-out: Growth percent rate
# HT29 = assay: NCI60 one-dose screen (10 μM), Colon Cancer; assay type: cell-based; settings: Homo sapiens, HT-29, read-out: Growth percent rate
# A549/ATCC = assay: NCI60 one-dose screen (10 μM), Non-small Cell Lung Cancer; assay type: cell-based; settings: Homo sapiens, A549, read-out: Growth percent rate
# MALME-3M = assay: NCI60 one-dose screen (10 μM), Melanoma; assay type: cell-based; settings: Homo sapiens, Malme-3M, read-out: Growth percent rate
# A498 = assay: NCI60 one-dose screen (10 μM), Renal Cancer; assay type: cell-based; settings: Homo sapiens, A498, read-out: Growth percent rate
# K-562 = assay: NCI60 one-dose screen (10 μM), Leukemia; assay type: cell-based; settings: Homo sapiens, K562, read-out: Growth percent rate
# EKVX = assay: NCI60 one-dose screen (10 μM), Non-small Cell Lung Cancer; assay type: cell-based; settings: Homo sapiens, read-out: Growth percent rate
# NCI-H460 = assay: as above; assay type: cell-based; settings: Homo sapiens, NCI-H460, read-out: Growth percent rate
# MCF7 = assay: NCI60 one-dose screen (10 μM), Breast Cancer; assay type: cell-based; settings: Homo sapiens, MCF7, read-out: Growth percent rate
# SNB-75 = assay: NCI60 one-dose screen (10 μM), CNS Cancer; assay type: cell-based, human; settings: Homo sapiens, SNB-75, read-out: Growth percent rate
# CCRF-CEM = assay: NCI60 one-dose screen (10 μM), Leukemia; assay type: cell-based; settings: Homo sapiens, read-out: Growth percent rate
# IGROV1 = assay: NCI60 one-dose screen (10 μM), Ovarian Cancer; assay type: cell-based; settings: Homo sapiens, IGROV-1, read-out: Growth percent rate
# HL-60(TB) = assay: NCI60 one-dose screen (10 μM), Leukemia; assay type: cell-based; settings: Homo sapiens, HL-60, read-out: Growth percent rate
# OVCAR-3 = assay: NCI60 one-dose screen (10 μM), Ovarian Cancer; assay type: cell-based; settings: Homo sapiens, OVCAR-3, read-out: Growth percent rate
compound,measurement,setting,value
CC[C@]12C=CCN3CC[C@@]4(c5ccc(OC)cc5N(C)[C@H]4[C@@](O)(C(=O)OC)[C@@H]1OC(=O)CCC(=O)N1CCN(C(=O)c4ccco4)CC1)[C@@H]32 [Compound 32],activity at 10 µM,SNB-19,91.2%
same,activity at 10 µM,SK-MEL-2,96.8%
same,activity at 10 µM,SN12C,94.4%
same,activity at 10 µM,HCC-2998,113%
same,activity at 10 µM,786–0,104%
same,activity at 10 µM,HOP-62,96.2%
same,activity at 10 µM,NCI-H23,101%
same,activity at 10 µM,U251,97.4%
same,activity at 10 µM,HS 578T,103%
same,activity at 10 µM,RPMI-8226,99.4%
same,activity at 10 µM,UACC-257,61.7%
same,activity at 10 µM,COLO 205,45.8%
same,activity at 10 µM,SF-295,95.2%
same,activity at 10 µM,OVCAR-8,100%
same,activity at 10 µM,SF-539,98.8%
same,activity at 10 µM,HCT-15,100%
same,activity at 10 µM,ACHN,103%
same,activity at 10 µM,MDA-MB-435,98.2%
same,activity at 10 µM,SW-620,117%
same,activity at 10 µM,HCT-116,119%
same,activity at 10 µM,CAKI-1,78.4%
same,activity at 10 µM,M14,88.3%
same,activity at 10 µM,TK-10,103%
same,activity at 10 µM,NCI-H522,81.4%
same,activity at 10 µM,KM12,100%
same,activity at 10 µM,MOLT-4,85.8%
same,activity at 10 µM,NCI-H322M,114%
same,activity at 10 µM,SK-MEL-5,83.8%
same,activity at 10 µM,SK-MEL-28,67.6%
same,activity at 10 µM,HT29,102%
same,activity at 10 µM,A549/ATCC,95.2%
same,activity at 10 µM,MALME-3M,82%
same,activity at 10 µM,A498,117%
same,activity at 10 µM,K-562,102%
same,activity at 10 µM,EKVX,99.4%
same,activity at 10 µM,NCI-H460,107%
same,activity at 10 µM,MCF7,91.5%
same,activity at 10 µM,SNB-75,109%
same,activity at 10 µM,CCRF-CEM,86.8%
same,activity at 10 µM,IGROV1,126%
same,activity at 10 µM,HL-60(TB),90.9%
same,activity at 10 µM,OVCAR-3,99.8%
CCC12C=CCN3CCC4(c5cc(NC(=O)CN6CCN(Cc7ccc(F)cc7)CC6)c(OC)cc5N(C)C4C(O)(C(=O)OC)C1OC(C)=O)C32 (stereo not drawn) [Compound 19],activity at 10 µM,SNB-19,97.2%
same,activity at 10 µM,SK-MEL-2,103%
same,activity at 10 µM,SN12C,103%
same,activity at 10 µM,HCC-2998,102%
same,activity at 10 µM,786–0,92.8%
same,activity at 10 µM,HOP-62,106%
same,activity at 10 µM,NCI-H23,103%
same,activity at 10 µM,U251,103%
same,activity at 10 µM,HS 578T,110%
same,activity at 10 µM,RPMI-8226,94.1%
same,activity at 10 µM,UACC-257,98.4%
same,activity at 10 µM,COLO 205,101%
same,activity at 10 µM,SF-295,99.8%
same,activity at 10 µM,OVCAR-8,100%
same,activity at 10 µM,SF-539,102%
same,activity at 10 µM,HCT-15,95%
same,activity at 10 µM,ACHN,102%
same,activity at 10 µM,MDA-MB-435,103%
same,activity at 10 µM,SW-620,118%
same,activity at 10 µM,HCT-116,101%
same,activity at 10 µM,CAKI-1,69.3%
same,activity at 10 µM,M14,102%
same,activity at 10 µM,TK-10,107%
same,activity at 10 µM,NCI-H522,93.5%
same,activity at 10 µM,KM12,115%
same,activity at 10 µM,MOLT-4,78%
same,activity at 10 µM,NCI-H322M,98.5%
same,activity at 10 µM,SK-MEL-5,92.8%
same,activity at 10 µM,SK-MEL-28,109%
same,activity at 10 µM,HT29,108%
same,activity at 10 µM,A549/ATCC,89%
same,activity at 10 µM,MALME-3M,102%
same,activity at 10 µM,A498,132%
same,activity at 10 µM,K-562,74%
same,activity at 10 µM,EKVX,88.8%
same,activity at 10 µM,NCI-H460,129%
same,activity at 10 µM,MCF7,80%
same,activity at 10 µM,SNB-75,87.3%
same,activity at 10 µM,CCRF-CEM,105%
same,activity at 10 µM,IGROV1,113%
same,activity at 10 µM,HL-60(TB),101%
same,activity at 10 µM,OVCAR-3,119%
